“And” between values parts separate entries of the source, which are not always exact repeats. Equal entries are not always repeated. Numbers after ± are expanded uncertainties.
Conditions: for speed of sound / mass density / viscosity / vapor or sublimation pressure: Liquid; for speed of sound: Frequency=3 MHz, Single path-length method; for mass density: Vibrating tube method; for surface tension liquid-gas: Drop volume; for viscosity: Capillary tube (Ostwald / Ubbelohde) method; for vapor or sublimation pressure: Ebulliometric method (Recirculating still)

CCc1ccco1 [2-ethylfuran]
Conditions | mass density | speed of sound [m/s] | viscosity [mPa·s]
313.15 K, 100 kPa | 882.52 ± 0.51 kg/m3 and 882.49 ± 0.23 kg/m3 | 1129.2 ± 0.71 | –
313.15 K, 2000 kPa | 884.62 ± 0.23 kg/m3 | – | –
313.15 K, 5000 kPa | 887.63 ± 0.24 kg/m3 | – | –
313.15 K, 7000 kPa | 889.75 ± 0.24 kg/m3 | – | –
313.15 K, 10000 kPa | 892.61 ± 0.25 kg/m3 | – | –
313.15 K, 15000 kPa | 897.4 ± 0.25 kg/m3 | – | –
313.15 K, 20000 kPa | 901.8 ± 0.26 kg/m3 | – | –
313.15 K, 25000 kPa | 906.18 ± 0.27 kg/m3 | – | –
313.15 K, 30000 kPa | 910.18 ± 0.28 kg/m3 | – | –
313.15 K, 35000 kPa | 914.06 ± 0.29 kg/m3 | – | –
313.15 K, 40000 kPa | 917.85 ± 0.29 kg/m3 | – | –
313.15 K, 45000 kPa | 921.58 ± 0.3 kg/m3 | – | –
313.15 K, 50000 kPa | 925.04 ± 0.3 kg/m3 | – | –
313.15 K, 55000 kPa | 928.5 ± 0.31 kg/m3 | – | –
313.15 K, 60000 kPa | 931.93 ± 0.31 kg/m3 | – | –
313.15 K, 65000 kPa | 935.06 ± 0.31 kg/m3 | – | –
315.65 K, 100 kPa | 879.73 ± 0.51 kg/m3 | 1118.1 ± 0.71 | 0.4049 ± 0.0058
318.15 K, 100 kPa | 876.92 ± 0.51 kg/m3 and 876.88 ± 0.23 kg/m3 | 1107.4 ± 0.71 | 0.3962 ± 0.0058
318.15 K, 2000 kPa | 879.13 ± 0.23 kg/m3 | – | –
318.15 K, 5000 kPa | 882.2 ± 0.24 kg/m3 | – | –
318.15 K, 7000 kPa | 884.37 ± 0.24 kg/m3 | – | –
318.15 K, 10000 kPa | 887.44 ± 0.25 kg/m3 | – | –
318.15 K, 15000 kPa | 892.29 ± 0.26 kg/m3 | – | –
318.15 K, 20000 kPa | 896.91 ± 0.27 kg/m3 | – | –
318.15 K, 25000 kPa | 901.27 ± 0.27 kg/m3 | – | –
318.15 K, 30000 kPa | 905.42 ± 0.28 kg/m3 | – | –
318.15 K, 35000 kPa | 909.5 ± 0.29 kg/m3 | – | –
318.15 K, 40000 kPa | 913.4 ± 0.3 kg/m3 | – | –
318.15 K, 45000 kPa | 917.1 ± 0.3 kg/m3 | – | –
318.15 K, 50000 kPa | 920.67 ± 0.31 kg/m3 | – | –
318.15 K, 55000 kPa | 924.18 ± 0.31 kg/m3 | – | –
318.15 K, 60000 kPa | 927.71 ± 0.32 kg/m3 | – | –
318.15 K, 65000 kPa | 930.91 ± 0.32 kg/m3 | – | –
320.65 K, 100 kPa | 874.11 ± 0.51 kg/m3 | 1096.5 ± 0.71 | 0.3885 ± 0.0057
323.15 K, 100 kPa | 871.29 ± 0.51 kg/m3 and 871.23 ± 0.23 kg/m3 | 1085.6 ± 0.71 | 0.3794 ± 0.0057
323.15 K, 2000 kPa | 873.56 ± 0.23 kg/m3 | – | –
323.15 K, 5000 kPa | 876.77 ± 0.24 kg/m3 | – | –
323.15 K, 7000 kPa | 878.96 ± 0.24 kg/m3 | – | –
323.15 K, 10000 kPa | 882.17 ± 0.25 kg/m3 | – | –
323.15 K, 15000 kPa | 887.15 ± 0.26 kg/m3 | – | –
323.15 K, 20000 kPa | 891.93 ± 0.27 kg/m3 | – | –
323.15 K, 25000 kPa | 896.47 ± 0.28 kg/m3 | – | –
323.15 K, 30000 kPa | 900.65 ± 0.29 kg/m3 | – | –
323.15 K, 35000 kPa | 904.8 ± 0.3 kg/m3 | – | –
323.15 K, 40000 kPa | 908.8 ± 0.3 kg/m3 | – | –
323.15 K, 45000 kPa | 912.67 ± 0.31 kg/m3 | – | –
323.15 K, 50000 kPa | 916.35 ± 0.32 kg/m3 | – | –
323.15 K, 55000 kPa | 919.97 ± 0.32 kg/m3 | – | –
323.15 K, 60000 kPa | 923.48 ± 0.33 kg/m3 | – | –
323.15 K, 65000 kPa | 926.81 ± 0.33 kg/m3 | – | –
325.65 K, 100 kPa | 868.46 ± 0.51 kg/m3 | 1074.8 ± 0.71 | 0.3706 ± 0.0057
328.15 K, 100 kPa | 865.62 ± 0.51 kg/m3 and 865.59 ± 0.23 kg/m3 | 1063.8 ± 0.71 | 0.3619 ± 0.0057
328.15 K, 2000 kPa | 867.92 ± 0.23 kg/m3 | – | –
328.15 K, 5000 kPa | 871.27 ± 0.24 kg/m3 | – | –
328.15 K, 7000 kPa | 873.57 ± 0.24 kg/m3 | – | –
328.15 K, 10000 kPa | 876.84 ± 0.25 kg/m3 | – | –
328.15 K, 15000 kPa | 882.03 ± 0.26 kg/m3 | – | –
328.15 K, 20000 kPa | 886.97 ± 0.27 kg/m3 | – | –
328.15 K, 25000 kPa | 891.57 ± 0.28 kg/m3 | – | –
328.15 K, 30000 kPa | 895.96 ± 0.29 kg/m3 | – | –
328.15 K, 35000 kPa | 900.23 ± 0.3 kg/m3 | – | –
328.15 K, 40000 kPa | 904.35 ± 0.31 kg/m3 | – | –
328.15 K, 45000 kPa | 908.24 ± 0.32 kg/m3 | – | –
328.15 K, 50000 kPa | 912.04 ± 0.32 kg/m3 | – | –
328.15 K, 55000 kPa | 915.63 ± 0.33 kg/m3 | – | –
328.15 K, 60000 kPa | 919.32 ± 0.33 kg/m3 | – | –
328.15 K, 65000 kPa | 922.64 ± 0.34 kg/m3 | – | –
330.65 K, 100 kPa | 862.76 ± 0.51 kg/m3 | 1053.7 ± 0.71 | 0.3536 ± 0.0056
333.15 K, 100 kPa | 859.9 ± 0.51 kg/m3 and 859.9 ± 0.23 kg/m3 | 1042.2 ± 0.71 | 0.3455 ± 0.0056
333.15 K, 2000 kPa | 862.3 ± 0.23 kg/m3 | – | –
333.15 K, 5000 kPa | 865.81 ± 0.24 kg/m3 | – | –
333.15 K, 7000 kPa | 868.2 ± 0.25 kg/m3 | – | –
333.15 K, 10000 kPa | 871.58 ± 0.25 kg/m3 | – | –
333.15 K, 15000 kPa | 876.87 ± 0.26 kg/m3 | – | –
333.15 K, 20000 kPa | 881.93 ± 0.28 kg/m3 | – | –
333.15 K, 25000 kPa | 886.74 ± 0.29 kg/m3 | – | –
333.15 K, 30000 kPa | 891.26 ± 0.3 kg/m3 | – | –
333.15 K, 35000 kPa | 895.59 ± 0.31 kg/m3 | – | –
333.15 K, 40000 kPa | 899.79 ± 0.31 kg/m3 | – | –
333.15 K, 45000 kPa | 903.78 ± 0.32 kg/m3 | – | –
333.15 K, 50000 kPa | 907.66 ± 0.33 kg/m3 | – | –
333.15 K, 55000 kPa | 911.34 ± 0.34 kg/m3 | – | –
333.15 K, 60000 kPa | 915.07 ± 0.34 kg/m3 | – | –
333.15 K, 65000 kPa | 918.6 ± 0.35 kg/m3 | – | –
335.65 K, 100 kPa | 857.02 ± 0.51 kg/m3 | 1032.1 ± 0.71 | 0.3372 ± 0.0056
338.15 K, 100 kPa | 854.13 ± 0.51 kg/m3 and 854.07 ± 0.23 kg/m3 | 1020.5 ± 0.71 | 0.33 ± 0.0056
338.15 K, 2000 kPa | 856.63 ± 0.24 kg/m3 | – | –
338.15 K, 5000 kPa | 860.21 ± 0.24 kg/m3 | – | –
338.15 K, 7000 kPa | 862.69 ± 0.25 kg/m3 | – | –
338.15 K, 10000 kPa | 866.19 ± 0.26 kg/m3 | – | –
338.15 K, 15000 kPa | 871.73 ± 0.27 kg/m3 | – | –
338.15 K, 20000 kPa | 876.98 ± 0.28 kg/m3 | – | –
338.15 K, 25000 kPa | 881.86 ± 0.29 kg/m3 | – | –
338.15 K, 30000 kPa | 886.43 ± 0.3 kg/m3 | – | –
338.15 K, 35000 kPa | 890.92 ± 0.31 kg/m3 | – | –
338.15 K, 40000 kPa | 895.2 ± 0.32 kg/m3 | – | –
338.15 K, 45000 kPa | 899.36 ± 0.33 kg/m3 | – | –
338.15 K, 50000 kPa | 903.34 ± 0.34 kg/m3 | – | –
338.15 K, 55000 kPa | 907.07 ± 0.34 kg/m3 | – | –
338.15 K, 60000 kPa | 910.92 ± 0.35 kg/m3 | – | –
338.15 K, 65000 kPa | 914.41 ± 0.35 kg/m3 | – | –

Conditions | surface tension liquid-gas [mN/m] | vapor or sublimation pressure [kPa]
315.65 K | 22.66 ± 0.24 | –
317.62 K | – | 18.64 ± 0.1
318.15 K | 22.3 ± 0.24 | –
320.45 K | – | 20.98 ± 0.1
320.65 K | 22.07 ± 0.24 | –
322.48 K | – | 22.8 ± 0.1
323.15 K | 21.77 ± 0.24 | –
324.89 K | – | 25.18 ± 0.1
325.65 K | 21.4 ± 0.24 | –
327.06 K | – | 27.46 ± 0.1
328.15 K | 21.08 ± 0.24 | –
329.8 K | – | 30.6 ± 0.1
330.65 K | 20.87 ± 0.24 | –
331.39 K | – | 32.49 ± 0.1
333.15 K | 20.5 ± 0.24 | –
333.19 K | – | 34.85 ± 0.1
334.73 K | – | 36.94 ± 0.11
335.65 K | 20.28 ± 0.24 | –
336.84 K | – | 39.92 ± 0.11
338.15 K | 19.95 ± 0.24 | –
338.83 K | – | 42.91 ± 0.11
340.3 K | – | 45.25 ± 0.11
342.6 K | – | 49.13 ± 0.11
344.85 K | – | 53.18 ± 0.11
347.05 K | – | 57.4 ± 0.11
348.94 K | – | 61.22 ± 0.11
350.71 K | – | 64.98 ± 0.12
352.9 K | – | 69.89 ± 0.12
354.83 K | – | 74.51 ± 0.12
356.8 K | – | 79.34 ± 0.12
358.65 K | – | 84.17 ± 0.12
360.61 K | – | 89.59 ± 0.12
361.79 K | – | 92.94 ± 0.12
362.46 K | – | 94.88 ± 0.13
363.67 K | – | 98.45 ± 0.13
364.18 K | – | 100.08 ± 0.13
364.61 K | – | 101.33 ± 0.13

Reference: the NIST ThermoML archive (doi:10.1021/acs.jced.8b00153)
